Eight compounds from ChEMBL document CHEMBL1201862, “PubChem BioAssay data set” (2004) can be followed below.

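Dose response: 5 concentrations. Exposure: 48 h. Format: 96-well plates. Endpoint: linear interpolation; highest concentration if not reached. GI50 marks 50% less growth.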 Active and inactive are the calls of the source. Rule as the data show it: active = GI50 up to about 1.1 µM and inactive = higher.

Test systems include NCI-H23; OVCAR-8; M19-MEL; A498; NCI-H460; UACC-257; UACC-62; SF-295; HCT-15; OVCAR-5; M14; SNB-75; SK-OV-3; HOP-62; HT-29; HCT-116; NCI-H226; T47D; MCF7; MDA-MB-435.
Assay in all cases: NCI anticancer screen, dose series, 48 h

As to `CN/N=C(\C)C(CN1CCCCC1)C(C1=C(O)c2ccccc2OC1)c1ccccc1` (centres undefined), the GI50 is > 100 µM (inactive) with NCI-H23; > 100 µM (inactive) with OVCAR-8; > 100 µM (inactive) in the experiment with M19-MEL; > 10 µM (inactive) with A498; > 100 µM (inactive) with NCI-H460; > 100 µM (inactive) in the experiment with UACC-257. Further, the GI50 in the experiment on UACC-62 is 48 µM (inactive); in the experiment on SF-295, 82 µM (inactive); with HCT-15 it was greater than 100 µM; with OVCAR-5, > 100 µM (inactive); in the experiment on M14, > 100 µM (inactive); in the experiment on SNB-75, > 100 µM (inactive). Besides, the GI50 in the experiment on SK-OV-3, in the experiment on HOP-62, in the experiment on HT-29, in the experiment on HCT-116 and in the experiment with NCI-H226 was > 100 µM (inactive) each time.
In the case of `CC1CCP(=O)(c2ccccc2)c2ccccc21` (centres undefined), the GI50 in the experiment on NCI-H23 is > 100 µM (inactive); in the experiment on OVCAR-8, 41.6 µM (inactive); in the experiment on M19-MEL it was 24.4 µM (inactive); in the experiment with A498, > 100 µM (inactive); with NCI-H460 it was 40.8 µM (inactive); in the experiment with UACC-257, 65.9 µM (inactive). The GI50 with UACC-62 is 52.8 µM (inactive); in the experiment with SF-295, > 100 µM (inactive); in the experiment with HCT-15, 38.1 µM; in the experiment with OVCAR-5, > 100 µM (inactive); in the experiment with M14, > 100 µM (inactive); in the experiment on SNB-75 it was > 100 µM (inactive). For the same compound, the GI50 with SK-OV-3 is > 100 µM (inactive); in the experiment with HOP-62, 78.7 µM (inactive); in the experiment on HT-29, > 100 µM (inactive); in the experiment with HCT-116, 23 µM (inactive); in the experiment with NCI-H226 it was > 100 µM (inactive).
With `COC(=O)C1=C(C(=O)OC)SC(=CC#CC=C2SC(C(=O)OC)=C(C(=O)OC)S2)S1`, the GI50 with NCI-H23 was 5.81 µM (inactive); with OVCAR-8, 5.04 µM (inactive); in the experiment on M19-MEL it was 40.5 µM (inactive); with A498, 19.4 µM (inactive); in the experiment on NCI-H460, 21 µM (inactive); with UACC-257 it was > 54.3 µM (inactive). The GI50 in the experiment with UACC-62 was 8.26 µM (inactive); with SF-295, 2.82 µM (inactive); with HCT-15 it was 12.6 µM; with OVCAR-5, > 90.6 µM (inactive); in the experiment on M14, 13.6 µM (inactive); with SNB-75, 7 µM (inactive). Further, the GI50 is 16.5 µM (inactive) with SK-OV-3; 3.96 µM (inactive) in the experiment on HOP-62; 24.9 µM (inactive) with HT-29; 11.7 µM (inactive) with HCT-116; 10.6 µM (inactive) in the experiment on NCI-H226.
For `O=C1c2ccoc2C(=O)c2oc(=O)ccc21`, the GI50 with NCI-H23 was 2 µM (inactive); in the experiment on OVCAR-8, 6.35 µM (inactive); in the experiment with M19-MEL, 1.56 µM (inactive); in the experiment on A498 it was > 59.3 µM (inactive); in the experiment with NCI-H460 it was 18.7 µM (inactive); with UACC-257, 7.33 µM (inactive). The GI50 in the experiment on UACC-62 was 17.1 µM (inactive); in the experiment with SF-295, 17.5 µM (inactive); with HCT-15, 12 µM; with OVCAR-5 it was 19.7 µM (inactive); with M14 it was 7.82 µM (inactive); in the experiment with SNB-75 it was 6.41 µM (inactive). Besides, the GI50 with SK-OV-3 was 30.1 µM (inactive); in the experiment with HOP-62 it was > 46.1 µM (inactive); with HT-29 it was 36.4 µM (inactive); with HCT-116, 5.31 µM (inactive); with NCI-H226, > 42.6 µM (inactive).
Regarding `CC(C)(Oc1ccc(/C=C/C(=O)c2ccc(Cl)cc2)cc1)C(=O)Nc1c(Cl)cccc1Cl`, the GI50 was 17.3 µM (inactive) with NCI-H23; 14.1 µM (inactive) in the experiment on OVCAR-8; 14.1 µM (inactive) in the experiment with M19-MEL; 17.1 µM (inactive) in the experiment with A498; 31.6 µM (inactive) in the experiment with NCI-H460; 30.9 µM (inactive) with UACC-257. The GI50 was 17.3 µM (inactive) in the experiment on UACC-62; 25.8 µM (inactive) with SF-295; 15.1 µM in the experiment on HCT-15; 41.1 µM (inactive) with OVCAR-5; 17.5 µM (inactive) in the experiment on M14; 29.4 µM (inactive) with SNB-75. Further, the GI50 with SK-OV-3 was 34 µM (inactive); in the experiment with HOP-62 it was 72.3 µM (inactive); in the experiment with HT-29 it was 13.3 µM (inactive); with HCT-116, 6.03 µM (inactive); in the experiment with NCI-H226 it was 25.5 µM (inactive).
As for `CCCCCCC(=O)C/C(CCC(=O)N(Cc1ccccc1)Cc1ccccc1)=N\Nc1ccc([N+](=O)[O-])cc1[N+](=O)[O-]`, the GI50 in the experiment on NCI-H23 is 38.7 µM (inactive); with OVCAR-8, 54.7 µM (inactive); in the experiment on M19-MEL it was 55.7 µM (inactive); with A498 it was 62.8 µM (inactive); in the experiment with NCI-H460, 71.1 µM (inactive); in the experiment with UACC-257 it was 48 µM (inactive). The GI50 with UACC-62 is 16.2 µM (inactive); with SF-295, 55.1 µM (inactive); in the experiment on HCT-15, 42.5 µM; with OVCAR-5 it was > 100 µM (inactive); with M14 it was 57.8 µM (inactive); in the experiment with SNB-75, 39.1 µM (inactive). The GI50 is > 100 µM (inactive) in the experiment with SK-OV-3; > 100 µM (inactive) in the experiment on HOP-62; 89.9 µM (inactive) with HT-29; 35.1 µM (inactive) with HCT-116; > 100 µM (inactive) in the experiment with NCI-H226.
Regarding `COc1cc(Cn2c(=S)ss/c2=N\C(=S)N(C)C)cc(OC)c1OC`, the GI50 with NCI-H23 was 14.7 µM (inactive); in the experiment on OVCAR-8, 52.6 µM (inactive); in the experiment on T47D, > 86.7 µM (inactive); in the experiment with M19-MEL, 4.11 µM (inactive); in the experiment with A498 it was 22.6 µM (inactive); in the experiment on NCI-H460, 4.16 µM (inactive). In addition, the GI50 was 10.6 µM (inactive) in the experiment on UACC-257; 2.85 µM (inactive) with UACC-62; 3.44 µM (inactive) in the experiment with SF-295; 3.64 µM (inactive) with MCF7; 3.57 µM in the experiment on HCT-15; 1.26 µM (inactive) in the experiment with MDA-MB-435. In addition, the GI50 with OVCAR-5 was > 68.9 µM (inactive); in the experiment on M14, 4.73 µM (inactive); in the experiment on SNB-75 it was 3.77 µM (inactive); in the experiment on SK-OV-3 it was 13.4 µM (inactive); in the experiment on HOP-62 it was 13.3 µM (inactive); in the experiment on HT-29, 4.04 µM (inactive). For the same compound, the figures for the GI50 in the experiment with HCT-116 and with NCI-H226 were 4.53 µM (inactive) and 24.3 µM (inactive), respectively.
Consider `CCC12C=CCN3CC[C@]4(C(=C(C(=O)OC)[C@@H]1Nc1ccn(C5OC(COC(C)=O)C(OC(C)=O)C5OC(C)=O)c(=O)n1)Nc1ccccc14)C32` (some centres undefined), for which the GI50 in the experiment with NCI-H23 is 1.62 µM (inactive); in the experiment with OVCAR-8, 5.16 µM (inactive); with M19-MEL, 3.98 µM (inactive); in the experiment with A498, 5.19 µM (inactive); with NCI-H460, 4.45 µM (inactive); in the experiment on UACC-257 it was 1.26 µM (inactive). In addition, the GI50 is 3.47 µM (inactive) in the experiment with UACC-62; 4.72 µM (inactive) with SF-295; 3.54 µM in the experiment on HCT-15; 1.82 µM (inactive) in the experiment on OVCAR-5; 4.18 µM (inactive) with M14; 3.95 µM (inactive) with SNB-75. For the same compound, the GI50 in the experiment on SK-OV-3 is 4.93 µM (inactive); in the experiment on HOP-62, 4.93 µM (inactive); with HT-29 it was 4.8 µM (inactive); in the experiment with HCT-116, 4 µM (inactive); in the experiment with NCI-H226 it was 4.47 µM (inactive).
